This is an account of results in US20090061515A1, “Methods of inhibiting or suppressing cellular proliferation” (priority 2007, published 2009).

Type in all cases: cell-based
Series [1] concerns Normal Human Dermal Fibroblast (NHDF) cells. The experiment in a line: Cell count and visual morphology of NHDF after exposure and after re-plating (Example 3). Conditions: for cell count: NHDF seeded at 45,000 cells/well, 48 hours of exposure; for growth after re-plating without compound: then 96 hours in fresh media without compound. The procedure:
(§1) The 5,6-dihydroxy-hexan-2-one (1.2 grams) was dissolved in 12 ml of phosphate buffered saline and was filter sterilized through a 0.22 micrometer syringe filter prior to use. The 5,6-dihydroxy-hexan-2-one was further diluted to 10^−1, 10^−2, 10^−3, 10^−4, 10^−5, and 10^−6 using serial dilutions for the evaluation.
NHDF were seeded at 45,000 cells/well in 24 well plate(s). Cells were grown for 72 hours, 48 hours of which was done in the presence of the test chemicals. 24 hours after seeding, 5,6-dihydroxy-hexan-2-one was added to the cell culture plates (2 ml/well). Assay plates were pulled for analysis at 24 and 48 hours after addition of the chemical compound. Samples were analyzed on the above-described assay as provided in the instructions for use of the assay.
Cell counts were taken after the cells had been plated for 72 hours and exposed to 5,6-dihydroxy-hexan-2-one for 48 hours.
After 48 hours of exposure to 5,6-dihydroxy-hexan-2-one, a cell count was taken on the 10^−1 concentration group and the 10^−6 concentration group. The 10^−1 cell count was 45,000 cells/well and the 10^−6 cell count was 275,000 cells/well. The count for the 10^−1 concentration group yielded the same number of cells that were previously seeded, while the 10^−6 concentration group had continued to grow rapidly without problems. Cells from these two different groups were then plated out at the same density as before, but without exposure to 5,6-dihydroxy-hexan-2-one and in fresh media for 96 hours. Visual representations of these two groups can be seen in FIG. 5 (10^−1, exposed to 5,6-dihydroxy-hexan-2-one for 48 hours, continued the culture for an additional 96 hours without 5,6-dihydroxy-hexan-2-one) and FIG. 6 (10^−6, exposed to 5,6-dihydroxy-hexan-2-one for 48 hours, continued the culture for an additional 96 hours without 5,6-dihydroxy-hexan-2-one).

In series [2] the test system is human umbilical vein endothelial cells (HUVEC). The experiment in a line: CyQuant cell proliferation after 48 hour exposure, HUVEC (Example 6). Conditions: for cell proliferation: 48 hour exposure. The procedure: (§2) Evaluation of the effects of 5,6-dihydroxy-hexan-2-one on human umbilical vein endothelial cells (HUVEC) and Glioblastoma/Astrocytoma cells U87 cellular proliferation and migration during 120 hours following 48 hour exposure to 5,6-dihydroxy-hexan-2-one at concentration of 10 mg/ml, 1 mg/ml, 100 micrograms/ml. Controls were cells not exposed to the agent.
(§3) In order to further explore the effects of this compound, experiments to evaluate the dose-effect response on the antiproliferative effect and on cell migration were conducted on two cell lines, human umbilical vein endothelial cells (HUVEC) and Glioblastoma/Astrocytoma cells (U87), over 120 hours after 48 hours of exposure to the compound.
(§4) A cell proliferation assay available under the trade designation CyQuant from Invitrogen Corporation (Carlsbad, Calif.) determines the density of cells in culture by using a green fluorescent dye which fluoresces when bound to cellular nucleic acids.

Series [3] concerns human Glioblastoma/Astrocytoma U87 cells. As to the kind of experiment: CyQuant cell proliferation after 48 hour exposure, U87 (Example 6). Conditions: for cell proliferation: 48 hour exposure. The method, then: as §2, §3, §4
The test system of series [4] is Normal Human Dermal Fibroblast (NHDF) cells. The experiment in a line: CytoTox 96 LDH release cytotoxicity assay (Example 3). The method, then: The assay used was a non-radioactive cytotoxicity assay available under the trade designation CytoTox 96 from Promega Corporation (Madison, Wis.), which was designed to determine the cytotoxicity of a substance by quantitatively measuring the presence of lactate dehydrogenase (LDH) in cell culture supernatant. The enzymatic assay utilizes the LDH released in the supernatant in the conversion of a tetrazolium salt substrate into a red formazan product. This resulting product is measured using a standard 96 well plate reader where the absorbance recorded at 490 nanometers is directly proportional to the number of lysed cells. The Normal Human Dermal Fibroblasts were available from Clonetics Corporation (San Diego, Calif.).
as §1
NHDF were seeded at 45,000 cells/well in 24 well plate(s). Cells were grown for 72 hours, 48 hours of which was done in the presence of the test chemicals. 24 hours after seeding, 5,6-dihydroxy-hexan-2-one was added to the cell culture plates (2 ml/well). […] Samples were analyzed on the above-described assay as provided in the instructions for use of the assay.

Series [5] shares this test system. The experiment in a line: Cell proliferation and viability assays (CyQuant, CellTiter-Glo, CellTiter 96), NHDF (Example 5). Conditions: 48 hours. The source says:
Multiple assays were used to test a variety of cellular properties expressed after exposure of different cells types to 5,6-dihydroxy-hexan-2-one. A cell proliferation assay available under the trade designation CyQuant from Invitrogen Corporation (Carlsbad, Calif.) determines the density of cells in culture by using a green fluorescent dye which fluoresces when bound to cellular nucleic acids. The amount of nucleic acid present is proportional to the amount of living cells in culture. […]
The amount of ATP present is proportional to the measured amount of a luminescent signal and therefore the amount of viable cells. […] The absorbance read is proportional to the amount of metabolic activity present in the cells.
Normal human dermal fibroblast (NHDF) cells and coronary artery smooth muscle cells (CASMC) in culture were exposed to 5,6-dihydroxy-hexan-2-one at concentrations of 10 microgram/ml, 1 mg/ml, and 10 mg/ml, for 48 hours, after which the cell culture wells were analyzed for cell proliferation and viability. […] FIG. 17 is a graphical representation of fibroblast cell numbers measured after 48 hours exposure to different concentrations of 5,6-dihydroxy-hexan-2-one. FIG. 18 is a graphical representation of smooth muscle cell numbers measured after 48 hours exposure to different concentrations of 5,6-dihydroxy-hexan-2-one. […]

Structures are written as SMILES.

Turning to `CC(=O)CCC(O)CO` (stereo not shown) [5,6-dihydroxy-hexan-2-one], the cell count is listed as 45,000 cells/well in series [1] (10^-1 concentration) and 275,000 cells/well in series [1] (10^-6 concentration). Also, the “growth after re-plating without compound” value is recorded as “impaired ability for cell proliferation” in series [1] (NHDF, 10^-1, exposed 48 hours) and “continued to grow without problems” in series [1] (NHDF, 10^-6, exposed 48 hours). The visual morphological study result in series [1] (NHDF, 10^-1 concentration, 24 and 48 hours) was “signs of cell distress”. The “visual physical cellular response” value in series [1] (NHDF, 10^-1 concentration, 48 hours) is recorded as “Fewer human dermal fibroblasts cells were observed”. Moreover, the cell proliferation result in series [2] (10 mg/ml) was “antiproliferative effects”; in series [2] (lowest concentration evaluated (100 micrograms/ml)) it was “no antiproliferative effects”; in series [3] (U87, 10 mg/ml), “antiproliferative effects”; in series [3] (U87, lowest concentration evaluated (100 micrograms/ml)), “no antiproliferative effects”; in series [5] (10 mg/ml) it was “inhibition of cell proliferation”; in series [5] (other concentrations (10 microgram/ml, 1 mg/ml)) it was “did not show this effect”. For the same molecule, the “time after withdrawal at which inhibitory effect was still observed” value was no less than 120 h in series [2] (10 mg/ml, after 48 hour exposure) and no less than 120 h in series [3] (U87, 10 mg/ml, after 48 hour exposure). Moreover, the “cytotoxicity (LDH release), in words” value in series [4] (10^-1 concentration) is “no significant cytotoxicity”; in series [4] (various concentrations, 48 hours) it was “no increase in cytotoxicity”.
